Consider two compounds from US8507219B2, “Method of treating inflammation with statins” (MUSC Foundation for Research Development, priority 1997, dated 2013).

Molecules are shown by their SMILES.

Test [1] has as its system ceramide production in rat primary astrocytes. The experiment in a line: Degradation of sphingomyelin to ceramide (DAG kinase assay, HPTLC) in rat primary astrocytes. Format: cell-based. On the procedure: Lipid extraction Approximately 1.0×10^6 cells were exposed to different cytokines in the presence or absence of antioxidants for different periods and lipids were extracted according to the methods described by Welsh (1996).
Quantification of sphingomyelin by HPTLC and densitometry Sphingomyelin was separated from total lipid extracts by HPTLC (LPK-plates from Whatman Labsales, USA) as described (Ganser et al., 1988) for phospholipids with the modification, that the plate was overrun for 30 min during its development and was dried overnight in vacuum desicator. Sphingomyelin was quantitated by densitometric scanning using Imaging Densitometer (Model GS-670; Bio-Rad, USA) and software provided with the instrument by the manufacturer.
Quantification of ceramide levels by diacylglycerol kinase assay Ceramide content was quantified essentially according to Priess et al. using diacylglycerol (DAG) kinase and [γ-^32P]ATP (Priess et al., 1986). Briefly, dried lipids were solubilized in 20 μl of an octyl β-D-glucoside/cardiolipin solution (7.5% octyl β-D-glucoside, 5 mM cardiolipin in 1 mM DTPA) by sonication in a sonicator bath. […] The labeled ceramide 1-phosphate was resolved with a solvent system consisting of methyl acetate: n-propanol:chloroform:methanol:0.25% KCl in water:acetic-acid (100:100:100:40:36:2). A standard sample of ceramide was phosphorylated under identical conditions and developed in parallel. […] Quantification of ceramide 1-phosphate was carried out by autoradiography and densitometric scanning using Imaging Densitometer (Model GS-670; Bio-Rad, USA). Values are expressed either as arbitrary units (absorbance) or as percent change.
Lipid Extraction Approximately 1.0×10^6 cells were exposed to different cytokines in the presence or absence of antioxidants for different periods, and lipids were extracted according to the methods described by Welsh (1996).
Quantification of Sphingomyelin by High Performance TLC and Densitometry Sphingomyelin was separated from total lipid extracts by high performance TLC (LHPK plates from Whatman) as described by Ganser et al. (1988) for phospholipids with the following modification: the plate was overrun for 30 min during its development and was dried overnight in vacuum desiccator. Sphingomyelin was quantitated by densitometric scanning using Imaging Densitometer (model GS-670; Bio-Rad), and software was provided with the instrument by the manufacturer.
Quantification of Ceramide Levels by Diacylglycerol Kinase Assay Ceramide content was quantified essentially according to Priess et al. (1986) using diacylglycerol (DAG) kinase and [γ-^32P]ATP. Briefly, dried lipids were solubilized in 20 μl of an octyl β-D-glucoside/cardiolipin solution (7.5% octyl β-D-glucoside, 5 mM cardiolipin in 1 mM DTPA) by sonication in a sonicator bath. […] The labeled ceramide-1-phosphate was resolved with a solvent system consisting of methyl acetate:n-propyl alcohol:chloroform:methanol, 0.25% KCl in water:acetic acid (100:100:100:40:36:2). A standard sample of ceramide was phosphorylated under identical conditions and developed in parallel. […] Quantification of ceramide-1-phosphate was carried out by autoradiography and densitometric scanning using Imaging Densitometer (model GS-670; Bio-Rad). Values are expressed either as arbitrary units (absorbance) or as percent change.

Test [2] concerns intracellular GSH in rat primary astrocytes. Nature of the test: Intracellular GSH / GSSG in rat primary astrocytes. The test is classed as cell-based. The note with it: 10 mM NAC 1 h; TNF-α or IL-1β 50 ng/ml; diamide 0.5 mM. The method, then:
Measurement of reduced glutathione (GSH) concentration in rat primary astrocytes Concentration of intracellular GSH was measured using a colorimetric assay kit for GSH from RandD, USA. Briefly, 2×10^6 cells were homogenized in 500 μl of ice-cold 5% metaphosphoric acid and centrifuged at 3000 g for 10 min. Supernatants were used to assay GSH using 4-chloro-1-methyl-7-trifluoromethyl-quinolinium methylsulfate and 30% NaOH at 400 nm.
Measurement of GSH (Reduced Glutathione) and GSSG Oxidized Glutathione Concentration of intracellular reduced GSH was measured using a calorimetric assay kit for GSH from R & D Systems. Briefly, 2×10^6 cells were homogenized in 500 μl of ice-cold 5% metaphosphoric acid and centrifuged at 3000×g for 10 min. Supernatants were used to assay GSH using 4-chloro-1-methyl-7-trifluoromethylquinolinium methylsulfate and 30% NaOH at 400 nm. Concentration of GSSG was determined according to the method of Griffith (1980) after derivatization with 2-vinylpyridine for 30 min at room temperature.

In test [3] the test system is rat primary oligodendrocytes. The experiment in a line: Apoptosis (DNA fragmentation, laddering) in rat primary oligodendrocytes. The note with it: 10 mM NAC 1 h; diamide 0.5 mM, TNF-α 50 ng/ml or C2-ceramide; 12 h. The test is classed as cell-based. The method, then:
Detection of DNA fragmentation Cells (1×10^6) were pelleted in an eppendorf tube by centrifugation at 1,000 rpm for 5 min, washed with PBS (pH 7.4), resuspended gently in 50 μl of a lysis buffer [200 mM NaCl, 10 mM Tris-HCl (pH 8.0), 40 mM EDTA (pH 8.0), 0.5% SDS, 400 ng RNase A/μl] and incubated at 37° C. for 1 h. The lysate received 200 μl of the digestion buffer [200 mM NaCl, 10 mM Tris-HCl (pH 8.0), 0.5% SDS, 125 ng proteinase K/μl]. The contents were mixed by inversion several times and then incubated at 50° C. for 2 h. An equal volume of a mixture phenol (pH 8.0), chloroform and isoamyl alcohol (25:24:1, v/v) was added, gently mixed for 10 min, and stored at room temperature for 2 min. […] The gel was stained with ethidium bromide and DNA-intercalated ethidium fluorescence was photographed on Polaroid film 665 (P/N) using an orange filter. […]
Detection of DNA Fragmentation Cells (1×10^6) were pelleted in an Eppendorf tube by centrifugation at 1000 rpm for 5 min, washed with phosphate-buffered saline, pH 7.4, resuspended gently in 50 μl of a lysis buffer (200 mM NaCl, 10 mM Tris-HCl, pH 8.0, 40 mM EDTA, pH 8.0, 0.5% SDS, 400 ng of RNase A/μl), and incubated at 37° C. for 1 h. […] The gel was stained with ethidium bromide, and DNA-intercalated ethidium fluorescence was photographed on Polaroid film 665 (P/N) using an orange filter. […]

For test [4] the following is noted: X-ALD patients; cited from earlier work.

Consider `CN(C)C(=O)/N=N/C(=O)N(C)C` [diamide], for which, in test [1], the “increase in ceramide production” value was “about 7 fold”. In addition, in test [2], the “intracellular level of GSH / GSSG” value is reported as “increased the intracellular level of GSSG”. Moreover, the “ceramide formation and DNA fragmentation / apoptosis” value in test [3] is reported as “induced internucleosomal DNA fragmentation”.
For the compound `CCCCCCCC/C=C\CCCCCCCC(=O)OCC(COC(=O)CCCCCCC/C=C\CCCCCCCC)OC(=O)CCCCCCC/C=C\CCCCCCCC` [trioleate], the “reduction of VLCFA” value in test [4] was 50%.
